Results: patent EP4692071A1, “PHOTOCHROMIC COMPOUND, NAPHTHOL DERIVATIVE, CURABLE COMPOSITION, OPTICAL ARTICLE, LENS, AND EYEGLASS” (TOKUYAMA CORPORATION, priority 2023, dated 2024)

Legend:
Type in all cases: physicochemical
[1] = High-temperature color development rate (A35/A23×100), temperature dependency
Experimental: (§1) • [1] Maximum Absorption Wavelength (λmax): The maximum absorption wavelength after color development, measured using a spectrophotometer (instantaneous multichannel photodetector MCPD3000) manufactured by Otsuka Electronics Co., Ltd. was used as an indicator for the color tone during the color development. • [2] 23°C Color Optical Density (A23): A difference between an absorbancy measured after light irradiation at 23°C for 240 seconds {ε(240)} and an absorbancy without light irradiation ε(0) at the maximum absorption wavelength was used as an indicator for the color optical density. […] 35°C Color Optical Density (A35): A difference between an absorbancy measured after light irradiation at 35°C for 240 seconds {ε(240)} and an absorbancy without light irradiation ε(0) at the first and second absorption wavelengths was used as an indicator for the color optical density. […] 23°C color fading half-life [τ1/2 (sec.)]: A time required for the absorbancy of the sample at the maximum absorption wavelength to decrease to 1/2 of {ε(240)-ε(0)} when the light irradiation is terminated after the light irradiation at 23°C for 240 seconds, was used as an indicator for the color fading speed. The shorter this time, the higher the color fading speed. • [6] Residual rate (A90/A0×100): The obtained photochromic plastic lens was subjected to accelerated deterioration using a xenon weather meter X25 manufactured by Suga Test Instruments Co., Ltd. for 90 hours. Subsequently, the color optical density was evaluated before and after the test, then a color optical density before the test (A0) and a color optical density after the test (A90) were measured, and a ratio (A90/A0) was defined as a residual rate. The residual rate was used as an indicator for a color developing durability. The higher the residual rate, the higher the color developing durability.

[2] = Residual rate (A90/A0×100) after 90 h accelerated deterioration in xenon weather meter X25, color developing durability; conditions: xenon weather meter 90 hours
Experimental: as §1

[3] = 35°C color optical density (A35): absorbancy difference ε(240)-ε(0) after 240 s light irradiation at 35°C; conditions: 240 s irradiation
Experimental: as §1

[4] = Maximum absorption wavelength (λmax) after color development, spectrophotometer MCPD3000
Experimental: as §1

[5] = 23°C color optical density (A23): absorbancy difference ε(240)-ε(0) after 240 s light irradiation at 23°C; conditions: 240 s irradiation
Experimental: as §1

[6] = cured product by kneading method, 1 mm
[7] = photochromic laminate by coating method
[8] = binder sheet (binder method), urethaneurea resin photochromic layer between polycarbonate sheets, 0.25 mmol per 100 parts by mass resin
[9] = photochromic cured product by kneading method, 1 mm thick thiourethane, 0.106 mmol per 100 g monomers
[10] = photochromic laminate by coating method, 40 µm photochromic layer on thiourethane lens, 0.25 mmol compound per 100 g monomers
[11] = photochromic laminate by coating method, at the maximum absorption wavelength

Row | Compound | A35/A23 *100 (%) ([1]; binder sheet (binder method)) | A35/A23 *100 (%) [1, 6] | A35/A23 *100 (%) [1, 7] | Residual rate (%) ([2]; binder sheet (binder method)) | Residual rate (%) [2, 6] | Residual rate (%) [2, 7] | A35 (-) ([3]; binder sheet (binder method)) | A35 (-) [3, 6] | A35 (-) [3, 7] | Maximum absorption wavelength (nm) [4, 8] | Maximum absorption wavelength (nm) [4, 9] | Maximum absorption wavelength (nm) [4, 10] | A23 (-) ([5]; binder sheet (binder method)) | A23 (-) [5, 6] | A23 (-) [5, 11]
1 | CCCC1(CCC)c2ccccc2-c2c1c1c(c3cc(OC)c(N4CCOc5ccccc54)cc23)OC(c2ccc(OC)cc2)(c2ccc(OC)cc2)C=C1 [Example 10 Formula (59)] | 66% | 68% | 66% | 94% | 89% | 82% | 0.87 - | 0.91 - | 0.86 - | 510 nm | 514 nm | 510 nm | 1.32 - | 1.34 - | 1.3 -
2 | CCCCC1(CCCC)c2ccccc2-c2c1c1c(c3cc(OC)c(N(c4ccc(F)cc4)c4ccc(F)cc4)cc23)OC(c2ccc(OC)cc2)(c2ccc(OC)cc2)C=C1 [Example 12 Formula (66)] | 67% | – | 67% | 94% | – | 81% | 0.93 - | – | 0.92 - | 501 nm | – | 501 nm | 1.40 - | – | 1.38 -
3 | CCCC1(CCC)c2ccccc2-c2c1c1c(c3cc(OC)c(N(c4ccccc4)c4ccc(C)cc4)cc23)OC(c2ccc(OC)cc2)(c2ccc(OC)cc2)C=C1 [Example 13 Formula (68)] | 68% | – | 69% | 96% | – | 83% | 1.09 - | – | 1.08 - | 512 nm | – | 512 nm | 1.6 | – | 1.57 -
4 | CCCOc1ccc(C2(c3ccc(OCCC)cc3)C=Cc3c4c(c5cc(N(c6ccc(C)cc6)c6ccc(C)cc6)c(OC)cc5c3O2)-c2ccccc2C4(CCCCOCOC)CCCCOCOC)cc1 [Example 14 Formula (71)] | 70% | – | 70% | 94% | – | 82% | 1.36 - | – | 1.33 - | 521 nm | – | 521 nm | 1.93 | – | 1.89 -
5 | CCCCCCOc1ccc(C2(c3ccc(OC)cc3)C=Cc3c4c(c5cc(N(c6ccc(C)cc6)c6ccc(OC)cc6)c(OC)cc5c3O2)-c2ccccc2C42CC(C)(C)CC(C)(C)C2)cc1 (centres unmarked) [Example 15 Formula (75)] | – | 63% | 62% | – | 81% | 75% | – | 0.76 - | 0.74 - | – | 527 nm | 523 nm | – | 1.22 - | 1.20 -
6 | CCCOc1ccc(C2(c3ccc(OC)cc3)C=Cc3c4c(c5cc(N(C)c6ccccc6)c(C)cc5c3O2)-c2ccc(C)cc2C4(CCCCOC)CCCCOC)cc1 (centres unmarked) [Example 17 Formula (79)] | – | 69% | 67% | – | 84% | 78% | – | 0.75 - | 0.71 - | – | 562 nm | 558 nm | – | 1.09 - | 1.06 -
